Measurements taken from US11534457B2, “Use of dextran sulfate” (priority 2017, dated 2022).

System: severe traumatic brain injury (sTBI)
Test: sTBI in rats, brain gene expression arrays and pathway analysis (Example 9)
Assay type: in vivo, Male Wistar rats
Design: key to z score, canonical pathway Dendritic Cell Maturation / z score, canonical pathway Adrenomedullin Signaling pathway / z score, canonical pathway Endothelin-1 Signaling / effect on canonical pathway Adrenomedullin Signaling pathway / effect on canonical pathway Endothelin-1 Signaling / effect on canonical pathway Dendritic Cell Maturation / Ingenuity canonical pathway Adrenomedullin signaling pathway, z score / Ingenuity canonical pathway FLT3 Signaling in Hematopoietic Progenitor Cells, z score / Ingenuity canonical pathway Opioid Signaling Pathway, z score / Ingenuity canonical pathway VDR/RXR Activation, z score / Ingenuity canonical pathway Neuropathic Pain Signaling In Dorsal Horn Neurons, z score / Ingenuity canonical pathway STAT3 Pathway, z score / Ingenuity canonical pathway IL-1 Signaling, z score / Ingenuity canonical pathway IL-6 Signaling, z score / Ingenuity canonical pathway NF-κB Signaling, z score / Ingenuity canonical pathway Role of NFAT in Cardiac Hypertrophy, z score / Ingenuity canonical pathway PPARα/RXRα Activation, z score: *: ambiguous effect
Experimental: The experimental protocol used in this study was approved by the Ethical Committee of the Catholic University of Rome, according to international standards and guidelines for animal care. Male Wistar rats of 300-350 g body weight were fed with standard laboratory diet and water ad libitum in a controlled environment. As the anesthetic mixture, the animals received 35 mg/kg b.w. ketamine and 0.25 mg/kg body weight midazolam by i.p. injection. Severe traumatic brain injury (sTBI) was induced by dropping a 450 g weight from 2 m height on to the rat head that had been protected by a metal disk previously fixed on the skull, according to the “weight drop” impact acceleration model (Marmarou et al., A new model of diffuse brain injury in rats. Part I: Pathophysiology and biomechanics. J Neurosurg. 1994; 80: 291-300). […] At the end of each period of treatment, rats were anesthetized again and then immediately sacrificed.
LMW-DS (Tikomed AB) was provided at a stock concentration of 20 mg/ml and was kept in a temperature-monitored refrigerator at 4° C. LMW-DS aliquots were diluted to the appropriate dosing concentration in sterile saline prior to delivery of a single subcutaneous injection.
Three doses of LMW-DS were administered subcutaneously 30 minutes post-TBI. The animals were sacrificed at 2 days post-TBI. The animals were divided into the following subgroups:
Three doses of LMW-DS were administered subcutaneously 30 minutes post-TBI. The animals were sacrificed at 7 days post-TBI. The animals were divided into the following subgroups:
An in vivo craniectomy was performed on all animals during anesthesia. After carefully removing the rat's skull, the brain was exposed and removed with a surgical spatula and quickly dropped in RNALater and preserved at 4° C. for further processing.
RNA extraction and array processing was carried out by SourceBioscience. The arrays used were the Agilent Rat expression arrays.
Statistical analysis was carried out using the Metaboanalyst software package. Gene expression changes of 10% with a p<0.05 were regarded as significant.
Pathway analysis of the differentially regulated genes was carried out using the Ingenuity pathway analysis package. The analysis was performed with special reference to pathways and molecular processes and diseases associated with neurodegenerative disease, including dementia, Alzheimer's disease, ALS, TBI and stroke, and with scarring and fibrosis, including glaucoma and normal pressure hydrocephalus (NPH) after subarachnoid haemorrhage.

[1] = TBI + 5 mg/kg LMW-DS, after 7 days, TBI: Inhibited
[2] = TBI + 15 mg/kg LMW-DS, 2 days after TBI
[3] = TBI + 15 mg/kg LMW-DS, 7 days after TBI
[4] = TBI + 15 mg/kg LMW-DS, 7 days after TBI, relative to control
[5] = TBI + 15 mg/kg LMW-DS, after 7 days, TBI: Activated
[6] = TBI + 15 mg/kg LMW-DS, after 7 days, TBI: Inhibited
[7] = TBI + 15 mg/kg repeat dose LMW-DS, after 7 days, TBI: Activated
[8] = TBI + 15 mg/kg repeat dose LMW-DS, after 7 days, TBI: Inhibited

low molecular weight dextran sulfate [LMW-DS]
Diseases or functions annotation: Organization of cytoskeleton [1]: Activated
Diseases or functions annotation: Pelvic tumor [1]: Activated
Diseases or functions annotation: Proliferation of connective tissue cells [1]: Inhibited
Diseases or functions annotation: Proliferation of epithelial cells [1]: Inhibited
Diseases or functions annotation: Quantity of cells [1]: Activated
Diseases or functions annotation: Quantity of connective tissue [1]: Activated
Diseases or functions annotation: Secretion of molecule [1]: Activated
Diseases or functions annotation: Size of body [1]: Activated
Diseases or functions annotation: Solid tumor [1]: Activated
Diseases or functions annotation: Synthesis of lipid [1]: Activated
Diseases or functions annotation: Transcription [1]: Activated
Diseases or functions annotation: Transcription of RNA [1]: Activated
Diseases or functions annotation: Transport of molecule [1]: Activated
Diseases or functions annotation: Tumorigenesis of tissue [1]: Inhibited
Diseases or functions annotation: Vasculogenesis [1]: Activated
Diseases or functions annotation: Apoptosis [2]: Inhibited
Diseases or functions annotation: Apoptosis of tumor cell lines [2]: Activated
Diseases or functions annotation: Behavior [2]: Inhibited
Diseases or functions annotation: Cell death [2]: Inhibited
Diseases or functions annotation: Necrosis [2]: Inhibited
Diseases or functions annotation: Quantity of blood cells [2]: Inhibited
Diseases or functions annotation: Quantity of cells [2]: Inhibited
Diseases or functions annotation: Quantity of lymphocytes [2]: Inhibited
Ingenuity canonical pathway: Endothelin-1 Signaling [3]: Activated
Ingenuity canonical pathway: Phospholipase C Signaling [3]: Activated
Ingenuity canonical pathway: cAMP-mediated signaling [3]: Activated
z score: Abdominal neoplasm [3]: −0.272
z score: Apoptosis [3]: −0.256
z score: Apoptosis of tumor cell lines [3]: 0.783
z score: Cancer [3]: 1.705
z score: Carcinoma [3]: 1.067
z score: Cell death [3]: −1.269
z score: Cell death of tumor cell lines [3]: 0.178
z score: Cell movement of myeloid cells [3]: 1.197
z score: Development of connective tissue cells [3]: 0.766
z score: Development of malignant tumor [3]: −0.774
z score: Differentiation of bone cells [3]: 0.903
z score: Epithelial neoplasm [3]: 0.775
z score: Extracranial solid tumor [3]: 1.474
z score: Frequency of tumor [3]: −1.519
z score: Genitourinary tumor [3]: 1.746
z score: Incidence of tumor [3]: −0.865
z score: Leukocyte migration [3]: 2.365
z score: Necrosis [3]: 0.213
z score: Non-melanoma solid tumor [3]: 1.121
z score: Quantity of Ca^2+ [3]: 0.224
z score: Quantity of cells [3]: 0.991
z score: Solid tumor [3]: 0.992
z score: Transcription [3]: 0.747
z score: Transcription of RNA [3]: 0.517
z score: Tumorigenesis of epithelial neoplasm [3]: 0.152
z score: Tumorigenesis of tissue [3]: 0.918
Ingenuity canonical pathway Adrenomedullin signaling pathway, z score [4]: *
Ingenuity canonical pathway Endothelin-1 Signaling, z score [4]: 1
Ingenuity canonical pathway Phospholipase C Signaling, z score [4]: 2
Ingenuity canonical pathway cAMP-mediated signaling, z score [4]: 1
Diseases or functions annotation: Apoptosis [5]: Inhibited
Diseases or functions annotation: Apoptosis of tumor cell lines [5]: Activated
Diseases or functions annotation: Cell death [5]: Inhibited
Diseases or functions annotation: Cell death of tumor cell lines [5]: Activated
Diseases or functions annotation: Development of malignant tumor [5]: Inhibited
Diseases or functions annotation: Extracranial solid tumor [5]: Activated
Diseases or functions annotation: Frequency of tumor [5]: Inhibited
Diseases or functions annotation: Incidence of tumor [5]: Inhibited
Diseases or functions annotation: Necrosis [5]: Activated
Diseases or functions annotation: Abdominal neoplasm [6]: Inhibited
Diseases or functions annotation: Cancer [6]: Activated
Diseases or functions annotation: Carcinoma [6]: Activated
Diseases or functions annotation: Cell movement of myeloid cells [6]: Activated
Diseases or functions annotation: Development of carcinoma [6]: Activated
Diseases or functions annotation: Development of connective tissue cells [6]: Activated
Diseases or functions annotation: Differentiation of bone cells [6]: Activated
Diseases or functions annotation: Epithelial neoplasm [6]: Activated
Diseases or functions annotation: Genitourinary tumor [6]: Activated
Diseases or functions annotation: Leukocyte migration [6]: Activated
Diseases or functions annotation: Non-melanoma solid tumor [6]: Activated
Diseases or functions annotation: Quantity of cells [6]: Activated
Diseases or functions annotation: Solid tumor [6]: Activated
Diseases or functions annotation: Transcription [6]: Activated
Diseases or functions annotation: Transcription of RNA [6]: Activated
Diseases or functions annotation: Tumorigenesis of epithelial neoplasm [6]: Activated
Diseases or functions annotation: Tumorigenesis of tissue [6]: Activated
Diseases or functions annotation: Digestive organ tumor [7]: Inhibited
Diseases or functions annotation: Extracranial solid tumor [7]: Activated
Diseases or functions annotation: Gastrointestinal tumor [7]: Inhibited
Diseases or functions annotation: Hematologic cancer [7]: Inhibited
Diseases or functions annotation: Hematopoietic neoplasm [7]: Inhibited
Diseases or functions annotation: Obesity [7]: Activated
Diseases or functions annotation: Seizure disorder [7]: Activated
Diseases or functions annotation: Skin lesion [7]: Activated
Diseases or functions annotation: Abdominal cancer [8]: Inhibited
Diseases or functions annotation: Abdominal neoplasm [8]: Inhibited
Diseases or functions annotation: Adenocarcinoma [8]: Inhibited
Diseases or functions annotation: Branching of cells [8]: Activated
Diseases or functions annotation: Carcinoma [8]: Inhibited
Diseases or functions annotation: Cell movement [8]: Activated
Diseases or functions annotation: Cell-cell contact [8]: Activated
Diseases or functions annotation: Concentration of hormone [8]: Activated
Diseases or functions annotation: Concentration of lipid [8]: Inhibited
Diseases or functions annotation: Dendritic growth/branching [8]: Inhibited
Diseases or functions annotation: Development of connective tissue cells [8]: Inhibited
Diseases or functions annotation: Development of gap junctions [8]: Activated
Diseases or functions annotation: Development of neurons [8]: Activated
Diseases or functions annotation: Developmental process of synapse [8]: Activated
